Experimental data: patent US9353088B2, “Crystalline pharmaceutical and methods of preparation and use thereof” (SARcode Bioscience Inc., priority 2009, dated 2016)

Experiments:
LFA-1 = molecular target: T1, LFA-1 (Homo sapiens, UniProt P05107+P20701); assay: in vitro cell assays (cell attachment and SEB IL-2 release); type: cell-based
T1 construct: LFA-1 levels in in vitro cell assays (cell attachment and SEB IL-2 release); endogenous in cells; host or cells: human T-cell lines (HuT 78 / Jurkat) and human PBMC
T1 sequence (P20701 26-1170): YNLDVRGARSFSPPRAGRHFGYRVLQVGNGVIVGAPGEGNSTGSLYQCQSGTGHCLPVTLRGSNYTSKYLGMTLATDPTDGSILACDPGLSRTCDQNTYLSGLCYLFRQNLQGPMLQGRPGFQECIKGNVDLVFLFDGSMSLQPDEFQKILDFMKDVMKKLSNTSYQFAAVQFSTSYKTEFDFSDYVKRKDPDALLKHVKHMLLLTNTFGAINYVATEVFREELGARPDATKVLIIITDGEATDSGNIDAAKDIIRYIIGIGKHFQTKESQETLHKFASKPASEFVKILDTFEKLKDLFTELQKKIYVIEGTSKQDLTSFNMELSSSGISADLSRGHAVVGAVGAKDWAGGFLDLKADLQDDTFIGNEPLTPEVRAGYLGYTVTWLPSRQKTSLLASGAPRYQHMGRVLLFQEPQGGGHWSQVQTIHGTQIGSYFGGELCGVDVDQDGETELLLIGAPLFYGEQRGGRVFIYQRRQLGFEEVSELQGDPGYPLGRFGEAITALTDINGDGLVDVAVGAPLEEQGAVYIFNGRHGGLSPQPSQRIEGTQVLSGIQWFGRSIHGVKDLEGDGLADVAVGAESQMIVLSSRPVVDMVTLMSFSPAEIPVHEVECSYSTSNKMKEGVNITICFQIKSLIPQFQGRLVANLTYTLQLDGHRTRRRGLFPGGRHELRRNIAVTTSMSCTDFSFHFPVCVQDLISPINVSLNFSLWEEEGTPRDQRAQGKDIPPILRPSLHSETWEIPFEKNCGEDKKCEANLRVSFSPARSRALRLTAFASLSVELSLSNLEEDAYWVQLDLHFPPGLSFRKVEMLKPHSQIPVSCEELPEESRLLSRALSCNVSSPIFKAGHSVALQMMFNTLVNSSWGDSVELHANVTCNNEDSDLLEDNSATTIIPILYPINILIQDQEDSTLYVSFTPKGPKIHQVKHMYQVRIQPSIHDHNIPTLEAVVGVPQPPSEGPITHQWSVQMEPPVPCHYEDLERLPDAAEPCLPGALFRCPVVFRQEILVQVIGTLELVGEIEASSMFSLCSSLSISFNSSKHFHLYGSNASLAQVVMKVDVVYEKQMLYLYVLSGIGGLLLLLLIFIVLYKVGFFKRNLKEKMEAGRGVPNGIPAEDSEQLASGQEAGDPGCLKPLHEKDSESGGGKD
T1 sequence (P05107 23-769): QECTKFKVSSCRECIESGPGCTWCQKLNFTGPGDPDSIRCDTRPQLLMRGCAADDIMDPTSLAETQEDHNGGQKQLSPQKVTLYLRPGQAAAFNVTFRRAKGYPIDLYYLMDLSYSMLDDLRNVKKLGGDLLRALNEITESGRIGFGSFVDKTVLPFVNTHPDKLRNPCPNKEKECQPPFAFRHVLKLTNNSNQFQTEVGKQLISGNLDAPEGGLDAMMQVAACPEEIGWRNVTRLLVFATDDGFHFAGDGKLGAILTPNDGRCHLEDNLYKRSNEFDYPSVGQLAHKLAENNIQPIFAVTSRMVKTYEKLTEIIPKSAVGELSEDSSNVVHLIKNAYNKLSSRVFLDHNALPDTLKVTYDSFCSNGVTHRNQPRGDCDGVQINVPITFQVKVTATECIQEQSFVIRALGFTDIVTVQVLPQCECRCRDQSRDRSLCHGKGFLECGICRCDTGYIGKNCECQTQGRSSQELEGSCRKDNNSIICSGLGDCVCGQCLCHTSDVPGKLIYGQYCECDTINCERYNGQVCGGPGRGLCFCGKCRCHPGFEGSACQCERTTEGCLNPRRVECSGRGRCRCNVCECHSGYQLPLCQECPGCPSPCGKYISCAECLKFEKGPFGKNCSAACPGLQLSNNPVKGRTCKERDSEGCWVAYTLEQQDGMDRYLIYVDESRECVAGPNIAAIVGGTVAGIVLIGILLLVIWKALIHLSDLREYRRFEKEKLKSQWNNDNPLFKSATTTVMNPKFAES

[1] = CNS effects, single bolus IV injection; type: in vivo, rats; settings: 10.0 mg/kg IV, 1 minute to 6 hours postdose, 2/6 animals
From the text: No effect on any other parameters was observed.

[2] = Respiratory function, single IV bolus, head-out plethysmograph; type: in vivo, rats; settings: any dose
[3] = 13-week IV toxicity study with 4-week recovery; type: in vivo, rats; settings: Day 1
[4] = Single dose ocular and IV ADME with [14C]-compound, whole body autoradiography; type: in vivo, rats; settings: for fecal excretion of administered radioactivity: 0 to 168 hours postdose; for Concentration, Aqueous humor / Concentration, Conjunctiva (bulbar) / Concentration, Conjunctiva (palpebral) / Concentration, Cornea / Concentration, Iris-ciliary body / Concentration, Lens / Concentration, Optic Nerve / Concentration, Retina and Choroid (with RPE) / Concentration, Sclera / Concentration, Vitreous Humor: ocular dosing
[5] = Plasma PK after single IV bolus dose; type: in vivo; settings: rat, rats, read-out: clearance rate
From the text: The systemic clearance rate can be calculated by various means known in the art. For example, the clearance rate for a drug may be calculated from an analysis of the drug concentration time profile for the rate of disappearance of a drug from the plasma following administration of the formulation, for example after a single intravenous injection. One of skill in the art could use a variety of methods to calculate and determine systemic clearance rates. For example, the rate of disappearance may be measured by analysis of the absorption, distribution, metabolism and excretion of a radiolabelled form of a drug or other means of measuring the level of drug in plasma, such as gas chromatography (Sapirstein et al., 1955, Am. Jour. Physiol., Vol. 181, pp. 330; U.S. Pat. No. 4,908,202), liquid chromatography-mass spectrometry methods (LCMS) or HPLC methods. As another example, the clearance rate may be calculated by introducing the formulation to the subject by continuous intravenous infusion until an equilibrium is reached at which the plasma level of the substance (as determined by analysis of plasma samples) is steady, at which point the infusion rate is equal to the rate of clearance from plasma (Earle et al., 1946, Proc. Soc. Exp. Biol. Med., Vol. 62, pp. 262 ff.) […]

[6] = Pilot ocular tolerance of topically administered compound in dogs-PK; type: in vivo; settings: up to 10% strength at 3 doses/day
[7] = Pilot mini-pig dermal study; type: in vivo, mini-pigs; settings: DMSO, gel, ointment, lotion at 1%, dermal TID for 7 days
[8] = dog, in vivo
[9] = Single dose ocular tolerance; settings: single dose ocular tolerance (10%)
[10] = Tear PK after single topical ocular instillation; settings: single topical ocular instillation, 0.1, 1.0 or 3.0%
[11] = 13-week ocular toxicity study with 4-week recovery; settings: 13-week ocular (3%)
[12] = In-vitro percutaneous absorption following topical application
[13] = 0.5 hour, topical ocular 1 mg/eye
[14] = 0.5 hour, topical ocular 1 mg/eye, above upper limit of quantification
[15] = 8 hours postdose, topical ocular 1 mg/eye
[16] = 24 hours postdose, topical ocular 1 mg/eye

## CS(=O)(=O)c1cccc(C[C@H](NC(=O)c2c(Cl)cc3c(c2Cl)CCN(C(=O)c2ccc4ccoc4c2)C3)C(=O)O)c1 [Compound of Formula I]
LFA-1
  IC50: 2 nM
[1]
  CNS observations: Transient miosis
[2]
  respiratory function (tidal volume, respiration rate, minute volume): No adverse changes in respiratory function or adverse effects
[3]; daily IV bolus 10 mg/kg
  Cmax: 1045.3 ng/mL
[3]; daily IV bolus 30 mg/kg
  AUC0-n: 2345.5 ng·h/mL
  Cmax: 5117.3 ng/mL
[4]; [13]
  radioactivity concentration, eye: 18100 ng equivalents [^14C]-compound of Formula I/g
  radioactivity concentration, kidney: 151 ng equivalents [^14C]-compound of Formula I/g
  radioactivity concentration, liver: 272 ng equivalents compound of Formula I/g
  radioactivity concentration, uveal tract: 9330 ng equivalents [^14C]-compound of Formula I/g
[4]; 0.5 hour, topical ocular 1 mg/eye, male Sprague Dawley, above upper limit of quantification
  radioactivity concentration, esophageal contents: 399000 ng equivalents [^14C]-compound of Formula I/g
[4]; [14]
  radioactivity concentration, nasal turbinates: 352000 ng equivalents [^14C]-compound of Formula I/g
  radioactivity concentration, small intestinal contents: 349000 ng equivalents [^14C]-compound of Formula I/g
[4]; [15]
  radioactivity concentration, cecum contents: 57600 ng equivalents [^14C]-compound of Formula I/g
  radioactivity concentration, large intestinal contents: 133000 ng equivalents [^14C]-compound of Formula I/g
[4]; 12 hours postdose, topical ocular 1 mg/eye
  radioactivity concentration, uveal tract: 610 ng equivalents [^14C]-compound of Formula I/g
[4]; [16]
  radioactivity concentration, cecum contents: 5870 ng equivalents [^14C]-compound of Formula I/g
  radioactivity concentration, large intestinal contents: 18000 ng equivalents [^14C]-compound of Formula I/g
[4]; IV administration 10 mg/kg
  fecal excretion of administered radioactivity: ~95%
[4]; at 2 hours postdose
  decline of radioactivity concentration, esophageal contents: ~100 fold
  decline of radioactivity concentration, esophagus: approximately 50 fold
[4]; for 16 hrs, rat
  levels in conjunctiva/cornea: > 100 nM
[4]; ocular administration 1 mg/eye
  fecal excretion of administered radioactivity: approximately 60%
[4]; 0.5 hour after administration
  Concentration, Aqueous humor: 1770 ng Equivalents [^14C]-compound of Formula I/g tissue
  Concentration, Conjunctiva (bulbar): 31500 ng Equivalents [^14C]-compound of Formula I/g tissue
  Concentration, Conjunctiva (palpebral): 26300 ng Equivalents [^14C]-compound of Formula I/g tissue
  Concentration, Cornea: 17150 ng Equivalents [^14C]-compound of Formula I/g tissue
  Concentration, Iris-ciliary body: 17550 ng Equivalents [^14C]-compound of Formula I/g tissue
  Concentration, Lens: 38.8 ng Equivalents [^14C]-compound of Formula I/g tissue
  Concentration, Optic Nerve: 796 ng Equivalents [^14C]-compound of Formula I/g tissue
  Concentration, Retina and Choroid (with RPE): 510 ng Equivalents [^14C]-compound of Formula I/g tissue
  Concentration, Sclera: 2750 ng Equivalents [^14C]-compound of Formula I/g tissue
  Concentration, Vitreous Humor: 1330 ng Equivalents [^14C]-compound of Formula I/g tissue
[4]; 4.0 hours after administration
  Concentration, Aqueous humor: 116 ng Equivalents [^14C]-compound of Formula I/g tissue
  Concentration, Conjunctiva (bulbar): 4480 ng Equivalents [^14C]-compound of Formula I/g tissue
  Concentration, Conjunctiva (palpebral): 21830 ng Equivalents [^14C]-compound of Formula I/g tissue
  Concentration, Cornea: 1346 ng Equivalents [^14C]-compound of Formula I/g tissue
  Concentration, Iris-ciliary body: 500 ng Equivalents [^14C]-compound of Formula I/g tissue
  Concentration, Lens: 9.69 ng Equivalents [^14C]-compound of Formula I/g tissue
  Concentration, Optic Nerve: 0 ng Equivalents [^14C]-compound of Formula I/g tissue
  Concentration, Retina and Choroid (with RPE): 46.7 ng Equivalents [^14C]-compound of Formula I/g tissue
  Concentration, Sclera: 387 ng Equivalents [^14C]-compound of Formula I/g tissue
  Concentration, Vitreous Humor: 183 ng Equivalents [^14C]-compound of Formula I/g tissue
[4]; ocular or IV
  Urinary excretion of administered radioactivity: up to 2%
[4]; tissue distribution in pigmented vs albino rats
  melanin binding: did not preferentially bind to melanin
[4]; up to 168 hrs after topical ocular or IV dose
  metabolites in pooled plasma, urine and fecal homogenates: no metabolites were isolated
[5]
  clearance: > 100 mL/min/kg
[6]
  ocular safety and tolerability: safe and well tolerated
[7]
  toxicity: No toxicity was reported
[8]
  level in vitreous fluid: not detected
[9]
  NOAEL: 3.5 mg/eye/3× per day
[10]
  time to maximal mean tear concentration: ≤ 30 min
[11]
  NOAEL: 1.05 mg/eye/3× per day
[12]; determined using [14C]-compound
  dose penetration into dermis: 2-4%
[12]; skin transport studies, microtomed human skin, 1% (w/w) prototypes
  compound level in dermis: greater than 10 micromolar
